Consider five molecules from ChEMBL document CHEMBL1201862, “PubChem BioAssay data set” (2004).

The structures appear in SMILES notation. Active and inactive are the calls of the source. Bounds are passed on as bounds.

One assay deals with T1, CAAX prenyl protease 2 (Saccharomyces cerevisiae S288c, UniProt Q03530).
T1 sequence (Q03530 whole entry): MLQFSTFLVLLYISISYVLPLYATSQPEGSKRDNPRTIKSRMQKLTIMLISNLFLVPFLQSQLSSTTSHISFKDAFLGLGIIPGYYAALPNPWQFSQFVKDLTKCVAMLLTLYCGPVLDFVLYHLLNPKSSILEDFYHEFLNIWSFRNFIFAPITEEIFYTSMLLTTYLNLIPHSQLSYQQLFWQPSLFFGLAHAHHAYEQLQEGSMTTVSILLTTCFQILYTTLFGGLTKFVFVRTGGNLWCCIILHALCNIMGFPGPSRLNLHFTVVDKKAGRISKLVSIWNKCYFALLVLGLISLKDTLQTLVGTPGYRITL
Format: biochemical.

For assay [1], the target named is T2, Replicative DNA helicase DnaB (Mycobacterium tuberculosis, UniProt P9WMR3).
T2 sequence (P9WMR3 whole entry): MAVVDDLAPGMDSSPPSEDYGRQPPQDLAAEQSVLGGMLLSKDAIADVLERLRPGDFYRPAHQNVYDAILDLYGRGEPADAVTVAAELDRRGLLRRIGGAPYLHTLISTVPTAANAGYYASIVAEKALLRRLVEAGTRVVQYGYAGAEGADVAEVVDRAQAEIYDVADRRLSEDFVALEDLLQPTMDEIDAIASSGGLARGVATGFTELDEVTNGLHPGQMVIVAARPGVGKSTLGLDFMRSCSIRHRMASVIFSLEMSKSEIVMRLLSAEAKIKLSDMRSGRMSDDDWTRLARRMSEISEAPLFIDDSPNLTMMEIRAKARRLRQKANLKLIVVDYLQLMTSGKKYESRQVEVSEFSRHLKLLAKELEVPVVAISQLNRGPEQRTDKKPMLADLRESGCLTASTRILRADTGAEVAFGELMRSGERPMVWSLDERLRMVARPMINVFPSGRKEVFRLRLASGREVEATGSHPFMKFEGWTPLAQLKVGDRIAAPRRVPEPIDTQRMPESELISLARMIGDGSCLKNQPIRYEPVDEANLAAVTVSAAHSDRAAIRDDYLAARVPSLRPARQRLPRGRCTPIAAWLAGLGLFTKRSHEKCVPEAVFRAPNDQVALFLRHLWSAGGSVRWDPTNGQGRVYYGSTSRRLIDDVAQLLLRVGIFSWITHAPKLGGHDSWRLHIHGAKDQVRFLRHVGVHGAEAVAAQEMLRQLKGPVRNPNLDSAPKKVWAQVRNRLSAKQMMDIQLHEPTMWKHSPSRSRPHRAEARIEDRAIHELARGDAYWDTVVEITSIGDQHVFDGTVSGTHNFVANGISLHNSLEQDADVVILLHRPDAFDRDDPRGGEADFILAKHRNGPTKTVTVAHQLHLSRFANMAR
The assay can be described thus: DnaB intein splicing inhibitors, dose response, biochemical, cell-free fluorescence (AID 449749). It counts as functional.

Another assay deals with T3, Protein RecA (Mycobacterium tuberculosis, UniProt P9WHJ3).
T3 sequence (P9WHJ3 whole entry): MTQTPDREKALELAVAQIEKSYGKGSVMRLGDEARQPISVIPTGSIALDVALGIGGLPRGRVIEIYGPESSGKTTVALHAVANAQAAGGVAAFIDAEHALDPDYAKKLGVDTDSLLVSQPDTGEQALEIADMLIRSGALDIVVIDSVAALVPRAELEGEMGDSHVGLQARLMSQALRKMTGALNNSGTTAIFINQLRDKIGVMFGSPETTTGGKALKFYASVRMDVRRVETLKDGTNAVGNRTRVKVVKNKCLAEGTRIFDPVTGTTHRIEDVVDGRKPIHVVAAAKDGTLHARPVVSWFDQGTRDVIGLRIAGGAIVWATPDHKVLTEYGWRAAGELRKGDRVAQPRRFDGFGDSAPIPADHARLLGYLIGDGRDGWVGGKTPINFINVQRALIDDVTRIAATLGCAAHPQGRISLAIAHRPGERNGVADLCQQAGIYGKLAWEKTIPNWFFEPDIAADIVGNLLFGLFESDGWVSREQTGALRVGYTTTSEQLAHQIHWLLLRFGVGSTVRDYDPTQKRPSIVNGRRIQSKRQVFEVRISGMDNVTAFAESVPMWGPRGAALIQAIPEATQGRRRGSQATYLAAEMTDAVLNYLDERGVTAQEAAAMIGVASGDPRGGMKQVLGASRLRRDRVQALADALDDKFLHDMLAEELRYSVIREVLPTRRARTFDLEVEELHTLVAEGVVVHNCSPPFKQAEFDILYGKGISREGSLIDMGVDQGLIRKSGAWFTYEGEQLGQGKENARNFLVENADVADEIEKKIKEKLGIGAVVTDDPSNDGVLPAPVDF
Description: Fluorescence Cell-Free Homogeneous Dose Retest to Identify Inhibitors of RecA-Intein Splicing Activity. [Related pubchem assays (depositor defined):AID2097, AID2223, AID489010, AID492950]. It counts as functional.

Assay [2] has as its target T4, Fatty acid synthase (Homo sapiens, UniProt P49327). The assay can be described thus: FAS thioesterase domain inhibitors, dose response, biochemical, endpoint fluorescence intensity, uHTS hits (AID 624327).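 Note: fluorescence from hydrolysis of an O-methyl fluorescein acyl ester substrate by the enzyme.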 It counts as functional.
Assay [3] has as its target T4, Fatty acid synthase. Description: FAS thioesterase domain inhibitors, dose response, biochemical, kinetic fluorescence intensity (AID 624326).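 Note: rate of fluorescence rise from hydrolysis of a fluorogenic O-methyl fluorescein ester substrate.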 Format: functional.
Assay [4] concerns the target G-protein coupled receptor 55 (Homo sapiens, UniProt Q9Y2T6). Description: GPR55 antagonists blocking LPI-driven arrestin recruitment, primary screen, imaging, U2OS, beta-arrestin-GFP, LPI agonist (AID 2013).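 Note: antagonist potency measured as reduced agonist-driven arrestin aggregation.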 Format: functional. Background: Arrestin recruitment assays detect the binding of arrestin to an activated receptor.
For assay [5], the target named is T5, Alkaline phosphatase, tissue-nonspecific isozyme (Homo sapiens, UniProt P05186).
T5 sequence (P05186 whole entry): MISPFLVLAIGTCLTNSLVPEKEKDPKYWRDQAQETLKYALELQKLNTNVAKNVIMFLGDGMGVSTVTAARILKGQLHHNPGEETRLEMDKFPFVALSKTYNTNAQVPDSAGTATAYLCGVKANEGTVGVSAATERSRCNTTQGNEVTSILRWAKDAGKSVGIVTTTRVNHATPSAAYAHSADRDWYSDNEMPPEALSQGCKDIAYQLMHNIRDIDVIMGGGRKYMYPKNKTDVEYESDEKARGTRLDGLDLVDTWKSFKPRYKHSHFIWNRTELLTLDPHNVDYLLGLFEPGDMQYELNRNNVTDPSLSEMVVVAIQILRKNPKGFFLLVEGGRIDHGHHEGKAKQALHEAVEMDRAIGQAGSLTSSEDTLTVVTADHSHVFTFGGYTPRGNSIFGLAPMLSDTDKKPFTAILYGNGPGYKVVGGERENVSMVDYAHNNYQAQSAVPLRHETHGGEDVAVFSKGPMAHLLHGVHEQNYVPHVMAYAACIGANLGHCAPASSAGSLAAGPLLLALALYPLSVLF
Description: human TNAP enzyme inhibitors, SAR follow-up, biochemical, luminescent, dose response (AID 1056).

Assay [6] has as its target T6, Type-1 angiotensin II receptor (Homo sapiens, UniProt P30556).
T6 sequence (P30556 whole entry): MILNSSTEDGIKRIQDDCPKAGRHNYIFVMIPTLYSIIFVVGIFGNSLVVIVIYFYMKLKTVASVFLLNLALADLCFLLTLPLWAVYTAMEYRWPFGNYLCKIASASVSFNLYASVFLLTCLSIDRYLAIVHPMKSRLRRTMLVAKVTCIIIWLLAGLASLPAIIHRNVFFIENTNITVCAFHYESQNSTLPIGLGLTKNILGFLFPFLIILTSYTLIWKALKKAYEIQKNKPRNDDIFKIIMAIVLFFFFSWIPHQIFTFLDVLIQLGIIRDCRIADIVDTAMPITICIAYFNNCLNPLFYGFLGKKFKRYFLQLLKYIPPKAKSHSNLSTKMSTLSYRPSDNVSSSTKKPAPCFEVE
The assay can be described thus: AT1 receptor antagonists, dose response, selectivity assay for APJ receptor antagonist project, cell-based, uHTS hits (AID 463214).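 Note: antagonist potency against angiotensin II stimulated AT1 response.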 Format: functional.

Another assay concerns the target Beta-galactosidase (Escherichia coli, UniProt Q8VNN2). Description: PubChem AID 485352. It counts as functional.

Sequence of G-protein coupled receptor 55 (Q9Y2T6 whole entry): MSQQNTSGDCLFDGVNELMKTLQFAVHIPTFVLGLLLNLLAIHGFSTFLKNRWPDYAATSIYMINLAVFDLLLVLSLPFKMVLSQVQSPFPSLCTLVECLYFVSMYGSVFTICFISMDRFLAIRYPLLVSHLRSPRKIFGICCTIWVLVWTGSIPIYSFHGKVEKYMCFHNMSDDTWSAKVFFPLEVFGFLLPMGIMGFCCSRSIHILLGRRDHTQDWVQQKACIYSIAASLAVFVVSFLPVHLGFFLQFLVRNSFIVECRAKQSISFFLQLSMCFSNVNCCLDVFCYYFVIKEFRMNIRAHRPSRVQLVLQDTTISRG
T4 sequence (P49327 whole entry, the tested form may be a part): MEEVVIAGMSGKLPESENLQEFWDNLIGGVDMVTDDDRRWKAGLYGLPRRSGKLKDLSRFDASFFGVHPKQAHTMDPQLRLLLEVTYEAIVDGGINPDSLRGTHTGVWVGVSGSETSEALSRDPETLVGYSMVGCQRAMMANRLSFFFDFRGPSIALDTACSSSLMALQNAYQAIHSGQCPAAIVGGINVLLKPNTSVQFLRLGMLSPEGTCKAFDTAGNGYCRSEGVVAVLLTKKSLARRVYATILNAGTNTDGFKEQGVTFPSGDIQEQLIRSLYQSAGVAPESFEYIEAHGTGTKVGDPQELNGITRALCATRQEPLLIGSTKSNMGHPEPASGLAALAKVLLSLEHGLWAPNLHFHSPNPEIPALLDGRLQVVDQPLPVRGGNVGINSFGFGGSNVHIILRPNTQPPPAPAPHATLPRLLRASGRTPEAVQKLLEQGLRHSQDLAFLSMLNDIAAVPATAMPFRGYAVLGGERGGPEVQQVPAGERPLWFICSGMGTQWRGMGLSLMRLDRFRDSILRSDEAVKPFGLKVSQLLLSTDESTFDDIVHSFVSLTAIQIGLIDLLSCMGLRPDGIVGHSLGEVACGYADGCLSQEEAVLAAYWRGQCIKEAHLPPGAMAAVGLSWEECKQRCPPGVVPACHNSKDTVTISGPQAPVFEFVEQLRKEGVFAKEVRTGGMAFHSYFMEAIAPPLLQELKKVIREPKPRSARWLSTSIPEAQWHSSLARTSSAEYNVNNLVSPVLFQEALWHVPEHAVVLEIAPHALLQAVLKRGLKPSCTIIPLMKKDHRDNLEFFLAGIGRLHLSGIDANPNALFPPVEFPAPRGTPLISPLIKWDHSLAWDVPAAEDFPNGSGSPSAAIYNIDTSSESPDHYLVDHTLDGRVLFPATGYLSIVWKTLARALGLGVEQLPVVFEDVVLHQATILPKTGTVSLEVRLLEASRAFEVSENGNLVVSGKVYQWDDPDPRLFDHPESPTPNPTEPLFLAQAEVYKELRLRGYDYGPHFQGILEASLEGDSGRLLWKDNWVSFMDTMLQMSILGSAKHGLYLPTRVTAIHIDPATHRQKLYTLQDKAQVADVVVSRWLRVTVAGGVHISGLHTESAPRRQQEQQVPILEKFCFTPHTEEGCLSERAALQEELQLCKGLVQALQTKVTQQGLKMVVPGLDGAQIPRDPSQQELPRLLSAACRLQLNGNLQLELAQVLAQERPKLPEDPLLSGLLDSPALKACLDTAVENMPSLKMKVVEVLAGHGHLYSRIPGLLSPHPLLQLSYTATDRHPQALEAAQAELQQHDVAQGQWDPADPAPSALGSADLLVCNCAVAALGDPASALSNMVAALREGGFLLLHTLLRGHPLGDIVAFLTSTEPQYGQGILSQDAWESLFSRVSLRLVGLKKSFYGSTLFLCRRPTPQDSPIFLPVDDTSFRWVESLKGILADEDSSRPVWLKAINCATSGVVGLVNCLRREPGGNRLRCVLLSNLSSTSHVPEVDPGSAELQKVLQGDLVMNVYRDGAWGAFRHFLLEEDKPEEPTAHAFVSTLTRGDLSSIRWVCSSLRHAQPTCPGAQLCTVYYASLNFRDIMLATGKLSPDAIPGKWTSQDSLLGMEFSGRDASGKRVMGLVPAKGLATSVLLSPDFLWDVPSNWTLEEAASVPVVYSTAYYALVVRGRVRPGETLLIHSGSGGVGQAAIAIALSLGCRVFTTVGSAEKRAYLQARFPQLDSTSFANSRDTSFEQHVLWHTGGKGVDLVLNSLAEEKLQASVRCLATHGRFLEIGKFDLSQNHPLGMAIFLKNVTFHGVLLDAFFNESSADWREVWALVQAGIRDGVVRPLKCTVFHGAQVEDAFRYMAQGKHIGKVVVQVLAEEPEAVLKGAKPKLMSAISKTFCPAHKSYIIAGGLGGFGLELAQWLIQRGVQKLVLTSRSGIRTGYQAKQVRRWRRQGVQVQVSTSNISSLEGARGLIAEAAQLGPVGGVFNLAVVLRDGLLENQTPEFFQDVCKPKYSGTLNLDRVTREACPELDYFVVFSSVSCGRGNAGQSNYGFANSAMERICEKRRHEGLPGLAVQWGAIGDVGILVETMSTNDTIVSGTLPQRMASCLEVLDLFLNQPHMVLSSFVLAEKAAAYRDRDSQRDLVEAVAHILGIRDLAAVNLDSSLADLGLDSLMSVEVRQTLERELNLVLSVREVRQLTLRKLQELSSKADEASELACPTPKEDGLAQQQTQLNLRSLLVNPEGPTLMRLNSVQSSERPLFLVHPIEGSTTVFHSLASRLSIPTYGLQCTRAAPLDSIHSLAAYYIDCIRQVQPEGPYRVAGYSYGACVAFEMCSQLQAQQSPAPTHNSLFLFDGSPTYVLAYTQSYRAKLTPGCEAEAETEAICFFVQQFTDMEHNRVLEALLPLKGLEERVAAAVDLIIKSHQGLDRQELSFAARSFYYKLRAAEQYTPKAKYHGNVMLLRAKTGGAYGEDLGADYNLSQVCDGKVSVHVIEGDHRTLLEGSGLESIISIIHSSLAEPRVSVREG
Sequence of Beta-galactosidase (Q8VNN2 whole entry): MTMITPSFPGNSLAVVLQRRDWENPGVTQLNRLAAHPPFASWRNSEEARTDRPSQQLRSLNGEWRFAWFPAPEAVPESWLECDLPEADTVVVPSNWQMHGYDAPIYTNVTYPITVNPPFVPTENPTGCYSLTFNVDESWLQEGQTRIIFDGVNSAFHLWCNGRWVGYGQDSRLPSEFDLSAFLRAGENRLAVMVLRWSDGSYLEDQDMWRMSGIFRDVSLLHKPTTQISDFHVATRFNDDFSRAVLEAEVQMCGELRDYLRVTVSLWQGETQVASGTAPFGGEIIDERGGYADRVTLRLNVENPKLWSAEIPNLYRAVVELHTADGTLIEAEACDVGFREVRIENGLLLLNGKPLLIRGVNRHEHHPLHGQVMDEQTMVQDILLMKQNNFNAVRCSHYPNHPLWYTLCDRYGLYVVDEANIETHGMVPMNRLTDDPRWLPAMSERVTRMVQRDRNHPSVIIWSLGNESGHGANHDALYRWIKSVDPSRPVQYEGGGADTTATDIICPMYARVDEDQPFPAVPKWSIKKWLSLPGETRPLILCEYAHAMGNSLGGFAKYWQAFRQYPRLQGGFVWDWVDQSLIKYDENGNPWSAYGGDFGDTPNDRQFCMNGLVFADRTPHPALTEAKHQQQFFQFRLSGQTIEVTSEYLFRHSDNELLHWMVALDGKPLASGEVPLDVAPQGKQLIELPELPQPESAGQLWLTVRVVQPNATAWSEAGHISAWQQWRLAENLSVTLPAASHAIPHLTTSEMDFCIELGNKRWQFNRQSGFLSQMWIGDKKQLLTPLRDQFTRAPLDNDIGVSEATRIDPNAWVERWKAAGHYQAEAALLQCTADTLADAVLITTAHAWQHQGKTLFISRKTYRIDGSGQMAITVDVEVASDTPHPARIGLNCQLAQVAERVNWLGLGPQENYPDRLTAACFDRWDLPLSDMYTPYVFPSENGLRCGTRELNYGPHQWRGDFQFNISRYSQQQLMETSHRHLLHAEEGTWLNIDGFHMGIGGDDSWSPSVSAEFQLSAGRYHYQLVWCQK

Broadly, the AC50 is the concentration giving half of the maximal activity seen. With `COc1ccccc1NC(=O)Cc1nnc(SCC(=O)Nc2nccs2)n1C`, the AC50 on CAAX prenyl protease 2 was 21.1 µM (active).
The term EC50 denotes the concentration that produces a half-maximal response. In general, IC50 refers to the concentration at which inhibition is half-maximal. With `O=C(Nc1ccc(Cl)cc1)C(Cl)C(=O)c1ccccc1` (stereo unspecified), the AC50 in assay [1] was 5.89 µM (active). Also, the EC50 on Protein RecA is 30.3 µM (active). For the same molecule, the IC50 at Fatty acid synthase [2] is 4.3 µM (active); on Fatty acid synthase [3] it was 4.67 µM (active); in assay [4] it was 1.07 µM (active).
`Cc1ccc(C(=O)N(c2ccccc2)C2CC(C)N(C(=O)c3ccco3)c3ccccc32)cc1` (stereo unspecified): the IC50 in [4] was 2.41 µM (active).
In the case of `O=C(O)c1[nH]nc2c1COc1ccccc1-2`, the IC50 in [5] was 1.31 µM (active).
For the molecule `Cc1ccc(-c2c(C(=O)N/N=C/c3cccc(Cl)c3)nnn2-c2nonc2N)cc1`, in assay [6], the IC50 was > 40 µM (not active). Besides, on CAAX prenyl protease 2, the AC50 was 1.44 µM (active). In addition, on Beta-galactosidase, the EC50 was > 40 µM (inactive).
